Patent US8586552B2, “4,6-substituted 2,5-dideoxystreptamine aminoglycoside antibiotics” (SelectX Pharmaceuticals, Inc., priority 2012, dated 2013)
≈ marks a conversion by molar mass, not a printed value.

What was measured:
Format in all cases: cell-based
[1] = test system: Pseudomonas aeruginosa (Pae, PAWT, ATCC #27853); assay: MIC against Pseudomonas aeruginosa reference strain PAWT; conditions: ATCC27853; Pseudomonas aeruginosa wild type PAWT
Excerpt: (§1) For evaluation of efficacy, we assembled panels of representative gram-negative pathogens, including Pseudomonas aeruginosa (Pae, PAWT, ATCC #27853), Klebsiella pneumoniae (Kpn, KPWT, ATCC #700603), Acinetobacter baumannii (Aba, ABWT, ATCC #BAA-747) and Escherichia coli (Eco, ECWT, ATCC #25922). These reference strains are useful indicator organisms to characterize compound activity against bacteria from a pathogenic genus in the absence of multiple resistance mechanisms. Two strains (PAWT and ECWT) are reference strains cited within the Clinical and Laboratory Standards Institute (CLSI) Standards for susceptibility testing by Minimum Inhibitory Concentration (MIC) (SXPS2) and are well suited for quality control. ABWT and ECWT are widely susceptible to aminoglycoside antibiotics, whereas PAWT and KPWT harbor a single aminoglycoside-modifying enzyme (AGME) that targets 4,6-substituted-2-deoxystreptamine AGs. […]

[2] = test system: Klebsiella pneumoniae (Kpn, KPWT, ATCC #700603); assay: MIC against Klebsiella pneumoniae reference strain KPWT; conditions: ATCC700603; Klebsiella pneumoniae KPWT, Table 2
Excerpt: as §1, with “These reference strains are useful indicator organisms to characterize compound activity against bacteria from a pathogenic genus in the absence of multiple resistance mechanisms.” left out

[3] = test system: Acinetobacter baumannii (Aba, ABWT, ATCC #BAA-747); assay: MIC against Acinetobacter baumannii reference strain ABWT; conditions: ATCCBAA747
Excerpt: as §1

[4] = test system: Escherichia coli (Eco, ECWT, ATCC #25922); assay: MIC against Escherichia coli reference strain ECWT; conditions: ATCC25922
Excerpt: For evaluation of efficacy, we assembled panels of representative gram-negative pathogens, including Pseudomonas aeruginosa (Pae, PAWT, ATCC #27853), Klebsiella pneumoniae (Kpn, KPWT, ATCC #700603), Acinetobacter baumannii (Aba, ABWT, ATCC #BAA-747) and Escherichia coli (Eco, ECWT, ATCC #25922). These reference strains are useful indicator organisms to characterize compound activity against bacteria from a pathogenic genus in the absence of multiple resistance mechanisms. Two strains (PAWT and ECWT) are reference strains cited within the Clinical and Laboratory Standards Institute (CLSI) Standards for susceptibility testing by Minimum Inhibitory Concentration (MIC) (SXPS2) and are well suited for quality control. ABWT and ECWT are widely susceptible to aminoglycoside antibiotics, whereas PAWT and KPWT harbor a single aminoglycoside-modifying enzyme (AGME) that targets 4,6-substituted-2-deoxystreptamine AGs.

[5] = test system: Pseudomonas aeruginosa PR1 (clinical isolate with intermediate aminoglycoside resistance); assay: MIC against Pseudomonas aeruginosa clinical isolate PR1; conditions: Pseudomonas aeruginosa resistant strain PR1
Excerpt: (§2) Pseudomonas aeruginosa is a prominent nosocomial pathogen. In addition to intrinsic antibiotic resistance to several antibiotics, Pseudomonas has acquired multiple additional mechanisms of resistance. As a result, therapeutic options for the treatment of infections caused by Pseudomonas aeruginosa are limited. We acquired clinical isolates of Pseudomonas aeruginosa (Micromyx LLC, Kalamazoo, Mich.), and used this panel to test compounds for Pseudomonicidal activity. […] For each strain and antibiotic, the mechanism(s) of resistance was inferred from the resistance profile. The presence of specific AGMEs was confirmed by colony PCR.

[6] = test system: Pseudomonas aeruginosa PR2 (clinical isolate with intermediate aminoglycoside resistance); assay: MIC against Pseudomonas aeruginosa clinical isolate PR2; conditions: Pseudomonas aeruginosa resistant strain PR2
Excerpt: as §2

[7] = test system: Pseudomonas aeruginosa PR3 (high-level, efflux-mediated, pan-aminoglycoside resistance); assay: MIC against Pseudomonas aeruginosa clinical isolate PR3; conditions: Pseudomonas aeruginosa, read-out: MIC PR3
Excerpt: as §2

[8] = test system: Klebsiella pneumoniae screening panel KPWT, KR1, KR2, KR3; assay: Klebsiella pneumoniae screening panel (KPWT, KR1, KR2, KR3), reference AGs
Excerpt: Klebsiella pneumoniae (Kpn) and Escherichia coli (Eco) are gram-negative (like Pae), enteric pathogens with increasing clinical relevance. Many clinical isolates of Kpn and Eco harbor extended-spectrum beta-lactamases and are no longer sensitive to most beta-lactam antibiotics. We acquired clinical isolates of Klebsiella pneumoniae and Escherichia coli (Micromyx LLC, Kalamazoo, Mich.) and used this panel to test compounds for anti-enteric activity.

[9] = test system: Acinetobacter baumannii indicator strains (ABWT and clinical isolates); assay: Acinetobacter baumannii indicator strain panel, reference AGs; conditions: read-out: activity (MIC) against 3 of the 4 indicator strains
Excerpt: Acinetobacter baumannii is another clinically important and very challenging gram negative pathogen. Members of the Acinetobacter genus, including baumannii, have a remarkable ability to upregulate and acquire resistance determinants. Coupled with its ability to survive for prolonged periods in a hospital environment, A. baumannii is an emerging threat for healthcare institutions globally. We acquired clinical isolates of Acinetobacter baumannii and used this panel to test compounds for anti-Acinetobacter activity. We first tested reference AGs against our panel of Aba strains.

NCC[C@H](O)C(=O)N[C@@H]1C[C@H](N)[C@@H](O[C@H]2O[C@H](CN)CC[C@H]2N)[C@H](O)[C@H]1O[C@H]1O[C@H](CO)[C@@H](O)[C@H](N)[C@H]1O [arbekacin]
MIC [1]: 0.5 µg/mL (≈ 0.905 µM) | MIC [2]: 0.25 to 0.5 µg/mL (≈ 0.452 to 0.905 µM) | MIC [3]: 0.5 µg/mL (≈ 0.905 µM) | MIC [4]: 1 µg/mL (≈ 1.81 µM) | MIC [5]: 8 µg/mL (≈ 14.5 µM) | MIC [6]: 8 to 16 µg/mL (≈ 14.5 to 29 µM) | MIC [7]: 16 µg/mL (≈ 29 µM) | potency against Klebsiella pneumoniae test panel [8]: potency against 3 of 4 strains tested | MIC [9]: ≤ 8 µg/mL
